Molecular target: T1, LAT1 (SLC7A5) (Homo sapiens, UniProt Q01650)
T1 construct: with 4F2hc (SLC3A2)
Assay: cryo-EM structure of the LAT1-4F2hc complex; IC50 from [3H]-L-leucine uptake in HT-29 cells
Assay type: cell-based

T1 sequence (Q01650 whole entry): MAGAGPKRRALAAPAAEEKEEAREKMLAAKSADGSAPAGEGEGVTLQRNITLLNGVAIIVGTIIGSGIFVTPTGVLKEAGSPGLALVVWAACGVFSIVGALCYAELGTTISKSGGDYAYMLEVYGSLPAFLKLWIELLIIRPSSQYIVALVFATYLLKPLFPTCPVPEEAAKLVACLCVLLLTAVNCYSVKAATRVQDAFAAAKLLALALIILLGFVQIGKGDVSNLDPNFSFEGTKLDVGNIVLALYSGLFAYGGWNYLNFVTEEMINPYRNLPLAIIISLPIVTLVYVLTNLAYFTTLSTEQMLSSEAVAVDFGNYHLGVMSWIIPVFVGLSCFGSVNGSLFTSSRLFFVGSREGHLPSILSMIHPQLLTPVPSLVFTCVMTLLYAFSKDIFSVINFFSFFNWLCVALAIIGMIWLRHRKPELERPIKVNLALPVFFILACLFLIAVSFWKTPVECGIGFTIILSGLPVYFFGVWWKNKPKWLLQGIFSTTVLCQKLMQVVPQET
T1 sequence (P08195 103-630 partner): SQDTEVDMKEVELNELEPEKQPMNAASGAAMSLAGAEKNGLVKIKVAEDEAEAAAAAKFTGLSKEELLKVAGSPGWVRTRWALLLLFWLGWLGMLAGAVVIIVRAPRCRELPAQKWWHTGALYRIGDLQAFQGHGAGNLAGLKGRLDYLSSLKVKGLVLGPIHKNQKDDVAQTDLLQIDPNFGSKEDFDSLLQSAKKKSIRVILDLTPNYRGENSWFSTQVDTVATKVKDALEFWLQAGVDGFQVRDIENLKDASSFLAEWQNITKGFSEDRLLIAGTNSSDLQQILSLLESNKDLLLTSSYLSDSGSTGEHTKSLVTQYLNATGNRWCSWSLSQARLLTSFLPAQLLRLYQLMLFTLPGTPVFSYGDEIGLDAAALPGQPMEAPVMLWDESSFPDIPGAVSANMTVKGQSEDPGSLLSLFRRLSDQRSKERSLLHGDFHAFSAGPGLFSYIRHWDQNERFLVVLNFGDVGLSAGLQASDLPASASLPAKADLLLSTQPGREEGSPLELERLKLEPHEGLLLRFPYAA

Row | IC50 [µM] | SMILES
1 | 0.165 | NC1(C(=O)O)CCc2ccc(OCc3cccc4ccccc34)cc2C1 (stereo not drawn) [JX-075]
2 | 0.234 | NC1(C(=O)O)CCc2ccc(OCc3ccccc3-c3nc4ccccc4o3)cc2C1 (stereo not drawn) [JX-119]
3 | 0.121 | NC1(C(=O)O)CCc2ccc(OCc3ccccc3-c3ccccc3)cc2C1 (stereo not drawn) [JX-078]

Reference: article PMC7988154, “Mechanism of substrate transport and inhibition of the human LAT1-4F2hc amino acid transporter” (Cell Discovery, 2021)
